The values that follow come from paper PMC10500703 (Journal of medicinal chemistry, 2021).

The term MIC denotes the lowest concentration found to suppress growth. A lower MIC goes with greater potency.

Format in all cases: cell-based, Mycobacterium tuberculosis
For test [1], the system named is Mtb ∆cyd.
For test [2], the system named is Mtb InhA-OE (H37Rv-LP:fabG1/inhA-c-15t).
Test [3] deals with Mtb EthA C253R.

For “3-(1,3-bis(4-chlorophenyl)-1H-pyrazol-5-yl)-N-(methylsulfonyl)propanamide [Compound 8]”, the results for the MIC in test [1] and in test [2] were 4 µM and 0.24 µM, respectively.

`CCc1cc(C(N)=S)ccn1` [ETH, Ethionamide] returned an MIC in test [3] of more than 125 µM.
